Data: the NIST ThermoML archive (doi:10.1021/je060271a)
Numbers after ± are expanded uncertainties.

Settings: 323.14 K, Liquid, Vibrating tube method

Measured: mass density

CCCCCCC(=O)OCC(COC(=O)CCCCCC)(COC(=O)CCCCCC)COC(=O)CCCCCC [pentaerythritol tetraheptanoate]
958.8 ± 1.2 kg/m3: 4419 kPa | 4507.3 kPa | 4656 kPa | 4677.4 kPa
957.4 ± 1.2 kg/m3: 2614.7 kPa
958.9 ± 1.2 kg/m3: 4703.4 kPa | 4725.2 kPa | 4747.6 kPa | 4774 kPa | 4796.4 kPa | 4819 kPa | 4845.9 kPa | 4945 kPa
959.8 ± 1.2 kg/m3: 6041.2 kPa | 6099.5 kPa | 6154.7 kPa | 6180.8 kPa | 6202.1 kPa | 6224.2 kPa | 6272.6 kPa | 6316.9 kPa | 6344 kPa
957.9 ± 1.2 kg/m3: 3256.6 kPa | 3302.3 kPa | 3377 kPa | 3405.8 kPa | 3565.2 kPa
960.7 ± 1.2 kg/m3: 7289.6 kPa | 7486.4 kPa | 7510.8 kPa | 7558.2 kPa | 7587.6 kPa | 7692.5 kPa | 7799.7 kPa
960.2 ± 1.2 kg/m3: 6489.5 kPa | 6755.6 kPa | 6809 kPa | 6835.2 kPa | 6893.8 kPa | 6920.9 kPa
958.5 ± 1.2 kg/m3: 4065.5 kPa | 4066.2 kPa | 4067.3 kPa | 4068.5 kPa | 4069.5 kPa | 4128 kPa | 4200.8 kPa | 4223.1 kPa | 4242.2 kPa | 4303.6 kPa | 4323.2 kPa
960 ± 1.2 kg/m3: 6294.4 kPa | 6393.8 kPa | 6417.3 kPa | 6466 kPa | 6513.7 kPa | 6542.9 kPa | 6566.4 kPa | 6644.3 kPa
958.6 ± 1.2 kg/m3: 4069.4 kPa | 4104.9 kPa | 4261 kPa | 4283.7 kPa | 4347.4 kPa | 4367.2 kPa | 4384.2 kPa | 4401.5 kPa | 4458.6 kPa | 4475.9 kPa | 4516.1 kPa | 4567.4 kPa
959 ± 1.2 kg/m3: 4869.6 kPa | 4893.1 kPa | 4921 kPa | 4968.9 kPa | 4997.5 kPa | 5022.2 kPa
958.1 ± 1.2 kg/m3: 3429.7 kPa | 3534.6 kPa | 3591.4 kPa
960.3 ± 1.2 kg/m3: 6782.2 kPa | 6948.7 kPa | 6976.5 kPa | 7037.3 kPa
959.3 ± 1.2 kg/m3: 5367.7 kPa | 5388.5 kPa | 5408.9 kPa | 5475.8 kPa | 5497.3 kPa | 5591.3 kPa
959.1 ± 1.2 kg/m3: 5047.1 kPa | 5072.5 kPa | 5103.3 kPa | 5129.3 kPa | 5156.3 kPa | 5217.4 kPa | 5240.4 kPa | 5260.4 kPa
960.6 ± 1.2 kg/m3: 7240 kPa | 7334.9 kPa | 7385.4 kPa | 7408.7 kPa | 7433.1 kPa | 7457.4 kPa | 7534.2 kPa
959.6 ± 1.2 kg/m3: 5684.7 kPa | 5833.6 kPa | 5857.5 kPa | 6015.7 kPa
958.7 ± 1.2 kg/m3: 4440.1 kPa | 4487.7 kPa | 4498.8 kPa | 4528.2 kPa | 4546.9 kPa | 4588 kPa | 4612.9 kPa | 4634.2 kPa
957.3 ± 1.2 kg/m3: 2543.1 kPa | 2581.9 kPa
956.9 ± 1.2 kg/m3: 1879.2 kPa | 1911.9 kPa | 1922.6 kPa | 1933.4 kPa | 1945.7 kPa | 2015.1 kPa | 2026.2 kPa | 2075 kPa
956.8 ± 1.2 kg/m3: 1867.1 kPa | 1889.3 kPa
960.5 ± 1.2 kg/m3: 7101 kPa | 7190 kPa | 7262.7 kPa | 7312 kPa | 7357.8 kPa
961 ± 1.2 kg/m3: 7857.2 kPa | 7910 kPa | 7941.6 kPa | 7968.3 kPa | 7995.6 kPa | 8028.4 kPa
957.6 ± 1.2 kg/m3: 2958.7 kPa
958.3 ± 1.2 kg/m3: 4041.1 kPa | 4064.9 kPa
959.5 ± 1.2 kg/m3: 5543.9 kPa | 5613.3 kPa | 5735.2 kPa | 5758 kPa | 5781.4 kPa | 5886 kPa
960.1 ± 1.2 kg/m3: 6595.3 kPa | 6619.5 kPa | 6674.1 kPa | 6699.1 kPa | 6724.7 kPa | 6861.8 kPa
957.5 ± 1.2 kg/m3: 2750.1 kPa
960.8 ± 1.2 kg/m3: 7611.9 kPa | 7637.3 kPa | 7666.8 kPa | 7773.8 kPa
959.4 ± 1.2 kg/m3: 5280.7 kPa | 5347.3 kPa | 5522.7 kPa | 5565.6 kPa | 5635.4 kPa | 5662.4 kPa | 5707.9 kPa
957.1 ± 1.2 kg/m3: 2003.7 kPa | 2040.3 kPa | 2089.2 kPa | 2302.3 kPa
958 ± 1.2 kg/m3: 3454.8 kPa | 3479.6 kPa | 3509.6 kPa | 3617.6 kPa
959.2 ± 1.2 kg/m3: 5189.2 kPa | 5304 kPa | 5323.4 kPa | 5429.5 kPa | 5454.7 kPa
959.9 ± 1.2 kg/m3: 6246.2 kPa | 6366.6 kPa | 6441.6 kPa
960.9 ± 1.2 kg/m3: 7717.9 kPa | 7743.3 kPa | 7826.1 kPa | 7883.6 kPa
958.4 ± 1.2 kg/m3: 3974.4 kPa | 4012.4 kPa | 4057.6 kPa | 4063.1 kPa | 4070.6 kPa | 4070.9 kPa | 4071.6 kPa | 4087 kPa | 4142.2 kPa | 4163.9 kPa | 4182.2 kPa
957.8 ± 1.2 kg/m3: 3185.1 kPa | 3279.3 kPa | 3329.7 kPa | 3352.8 kPa
960.4 ± 1.2 kg/m3: 7009.5 kPa | 7072 kPa | 7131.4 kPa | 7161.8 kPa | 7218.1 kPa
959.7 ± 1.2 kg/m3: 5804.9 kPa | 5910.2 kPa | 5935.4 kPa | 5964.8 kPa | 5989.9 kPa | 6072.5 kPa | 6127 kPa
961.1 ± 1.2 kg/m3: 8056 kPa
957 ± 1.2 kg/m3: 1901.4 kPa | 1956.8 kPa | 1967.4 kPa | 1980.8 kPa | 1992.6 kPa | 2051.7 kPa | 2063 kPa | 2101.9 kPa | 2226.1 kPa
